In patent publication US10227351B2, “Salt and polymorphic forms of (3R,4S)-L-((4-amino-5H-pyrrolo[3,2,-D]pyrimidin-7-yl)methyl)-4(methylthiomethyl)pyrodin-3-ol(MTDIA)” (VICTORIA LINK LIMITED, priority 2012, dated 2019):

Assay: Stated properties of the phosphate salt form (no method described)
Format: physicochemical
Conditions: comparator not stated in that sentence, no data given

solubility: improved
stability: improved
Structure (SMILES): CSC[C@H]1CN(Cc2c[nH]c3c(N)ncnc23)C[C@@H]1O [(3R,4S)-1-((4-amino-5H-pyrrolo[3,2-d]pyrimidin-7-yl)methyl)-4-(methylthiomethyl)pyrrolidin-3-ol phosphate]
